Results on one compound are retold here after patent publication US10214507B2, “Carbazole-containing amides, carbamates, and ureas as cryptochrome modulators” (Reset Therapeutics, Inc., priority 2014, dated 2019).

Molecules are shown by their SMILES. Where two headings read alike, the source gives them in different places.

The test system of data set [1] is db/db mouse model of type II diabetes. The experiment in a line: Increasing dosages of Compound 72 for 7 days in db/db mice. It counts as in vivo. From the text: (§1) Significance was accepted when p<0.05.
Test in data set [2]: as above
It counts as in vivo, mouse. To be noted: male, mouse, oral, around 8 hours after last dose.
Excerpt: as §1

Data set [3] concerns cortisone-induced insulin resistance in Sprague Dawley rats. As to the kind of experiment: Cortisone induced insulin resistance in rats. It counts as in vivo, rat. Particulars: cortisone 30 mg/kg sc + 50 mg/kg po. On the procedure: Animals were dosed with cortisone (30 mg/kg sc qd) in combination with test compounds for 6 days and then terminated 27 hours after the final dose of cortisone. A reference standard (Mifepristone) was also included. Cortisone 21-acetate (Sigma C-3130) was supplied by RenaSci and administered using a dose volume of 5 ml/kg via the subcutaneous route as a fine suspension in 1% methylcellulose. […] Mifepristone (Sigma M8046) was provided by RenaSci.
Glucose and insulin determinations were performed on plasma samples obtained from a tail vein bleed taken after a 12 h fast, approximately 27 h after the last cortisone dose. Animals were then terminated and a terminal (cardiac) blood sample taken from which plasma was prepared.
Thirty four male Sprague Dawley rats (weight range 200-250 g) were ordered from Charles River, Margate, Kent, UK. […] Subsequently, animals underwent a 3 day baseline period during which they were dosed once daily with vehicle at t=0 h (07:00). […] Body weight was recorded immediately before dosing began at 07:00 (t=0 h).
On Day 6 of dosing rats were fasted for 12 h beginning at 22:30 (timed to coincide with the Day 7 termination). […] At 10:30 on Day 7, 27 h after the final dose of cortisone, a blood sample (300 μl) was taken from the lateral tail vein into tubes containing EDTA (Sarstedt 16.444). The blood was centrifuged and resultant plasma aliquot stored at −75° C. The animals were euthanized by CO2 asphyxiation followed by cervical dislocation. Terminal blood (approximately 10 ml) was collected by cardiac puncture into tubes containing EDTA (Sarstedt 5 ml 32.332) and then centrifuged and plasma stored at −75° C. The tail vein plasma was analyzed for glucose (n=2) using a commercial clinical reagent (Thermoelectron Infinity glucose reagent (TR15421) and for insulin (n=1) using the Mercodia ultrasensitive rat insulin rat ELISA (10-1251-10).
Plasma glucose and insulin were analyzed by robust regression or general linear model with treatment as a factor and bleeding order and baseline body weight as covariates. A log transformation was used if appropriate. Appropriate multiple comparison tests (two-tailed) were used to determine significant differences from the vehicle group and from the Cortisone group. P<0.05 was considered to be statistically significant.

Data set [4] deals with FAD-binding domain of human CRY1 protein (hCRY1) (Homo sapiens (Human), UniProt Q16526). As to the kind of experiment: Thermal shift binding assay (differential scanning fluorimetry). To be noted: purified hCRY1 FADBD, Sypro-Orange. On the procedure: Binding of compounds to the isolated FAD-binding domain of human CRY1 protein (hCRY1) was determined using a differential scanning fluorimetry (‘thermal shift’) assay (Pantoliano et al. (2001) J Biomol Screening 6, 429; Niesen et al. (2007) Nature Protocols 2, 2212). The FAD-binding domain of hCRY1 (amino acid residues 1-494) with a C-terminal Myc-DDK tag (FADBD), was produced by transient transfection of HEK293T cells (Catalog # CRL-3216, American Type Culture Collection) and purified by anti-FLAG affinity chromatography (Catalog # A2220, Sigma-Aldrich). FADBD (0.5 μg per well) was incubated with dilutions of compounds in DMSO (5% DMSO final concentration in reaction) in 17.5 μl Tris-buffered saline (TBS) for 10 minutes on ice, then 2.5 μl of 8× Sypro-Orange Dye (Life Technologies) was added to each well. Triplicate wells were assayed for each compound concentration. The melting temperatures were measured in an ABI7500 quantitative PCR instrument using the melt curve mode with a thermal profile of 2 minutes at 25° C., followed by a ramp rate of 1° C./minute up to 99° C. The melting temperature for each well was determined from the first derivative of the melt curve. The change in melting temperature (ΔTm) was obtained by subtraction of the melting temperature of the FADBD in 5% DMSO alone.
Chain of FAD-binding domain of human CRY1 protein (hCRY1) (Q16526 1-494): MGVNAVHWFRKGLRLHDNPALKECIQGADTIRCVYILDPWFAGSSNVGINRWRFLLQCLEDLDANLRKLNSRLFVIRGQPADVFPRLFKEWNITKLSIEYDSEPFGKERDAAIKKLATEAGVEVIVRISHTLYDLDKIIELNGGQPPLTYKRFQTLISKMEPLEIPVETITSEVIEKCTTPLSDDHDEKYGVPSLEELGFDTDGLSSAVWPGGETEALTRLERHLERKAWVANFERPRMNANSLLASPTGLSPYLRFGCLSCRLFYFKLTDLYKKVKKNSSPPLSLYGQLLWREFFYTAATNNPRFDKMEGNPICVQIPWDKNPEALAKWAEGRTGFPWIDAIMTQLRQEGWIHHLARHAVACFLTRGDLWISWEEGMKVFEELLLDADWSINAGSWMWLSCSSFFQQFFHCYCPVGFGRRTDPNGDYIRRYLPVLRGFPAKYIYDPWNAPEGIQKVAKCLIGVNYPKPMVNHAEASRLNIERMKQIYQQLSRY
In general terms: Differential scanning fluorimetry follows unfolding on heating by fluorescence.

Take `O=C1NCCN1CC(O)Cn1c2ccc(F)cc2c2cc(F)ccc21` (stereo not drawn) [Compound 72, 1-(3-(3,6-difluoro-9H-carbazol-9-yl)-2-hydroxypropyl)imidazolidin-2-one]: the HOMA-IR in data set [1] (10 mg/kg QD PO 7 days) is recorded as 172.7+/−16.61 units; in data set [1] (50 mg/kg QD PO 7 days) it was 149.2+/−16.49 units; in data set [1] (100 mg/kg QD PO 7 days) it was 111.9+/−9.02 units; in data set [3] (insulin resistant rats), 56.94+/−11.18 units. Also, the fasting blood glucose in data set [1] (10 mg/kg QD PO 7 days) came to 503.5 ± 49.68 mg/dL; in data set [1] (50 mg/kg QD PO 7 days), 402.8 ± 25.25 mg/dL; in data set [1] (100 mg/kg QD PO 7 days), 420.7 ± 26.44 mg/dL. Further, the “glucose AUC from OGTT” value in data set [1] (10 mg/kg QD PO 7 days) was 39771+/−4244; in data set [1] (50 mg/kg QD PO 7 days), 35527+/−3215; in data set [1] (100 mg/kg QD PO 7 days), 28499+/−3079. In data set [1] (100 mg/kg QD PO 7 days), the “plasma insulin at t=0” value stood at 4.63 ± 0.17 ng/mL. Further, the “reduction of HOMA-IR compared to vehicle control” value in data set [1] (100 mg/kg QD PO 7 days) was determined as 34%. Moreover, the concentration at 8 h in data set [2] (liver, 10 mg/kg, read-out: compound level in liver) is 120 nM; in data set [2] (liver, 50 mg/kg, read-out: compound level in liver) it was 780 nM; in data set [2] (liver, 100 mg/kg, read-out: compound level in liver), 1810 nM; in data set [2] (plasma, 10 mg/kg, read-out: compound level in plasma), 90 nM; in data set [2] (plasma, 50 mg/kg, read-out: compound level in plasma) it was 570 nM; in data set [2] (plasma, 100 mg/kg, read-out: compound level in plasma) it was 1220 nM. Also, the fasted plasma glucose in data set [3] (rats) turned out to be 8.55 ± 0.3 mM. For the same compound, the fasted plasma insulin in data set [3] (rats) turned out to be 5.24 ± 1.1 ng/mL. In addition, in data set [4], the “change in melting temperature (ΔTm)” value is “dose-dependent increase”.
